Test results published in patent US9844542B2, “Substituted imidazopyridine and triazolopyridine compounds as negative allosteric modulators of mGluR5” (Vanderbilt University, priority 2013, dated 2017).
Where “and” joins values, the source holds several entries; their conditions need not be identical. Equal values may be shown once.

Legend:
[1] = target: T1, rat mGluR5 (Rattus norvegicus, UniProt P31424); assay: mGluR5 calcium mobilization assay (FDSS, Fluo-4) in HEK 293A cells stably expressing rat mGluR5; format: cell-based; details: HEK cells transfected with rat mGluR5; antagonism of glutamate EC80 response; ± = standard error of at least three experiments
T1 construct: expressed in transfected cells
T1 sequence (P31424 21-1171 isoform P31424-2 limits assumed): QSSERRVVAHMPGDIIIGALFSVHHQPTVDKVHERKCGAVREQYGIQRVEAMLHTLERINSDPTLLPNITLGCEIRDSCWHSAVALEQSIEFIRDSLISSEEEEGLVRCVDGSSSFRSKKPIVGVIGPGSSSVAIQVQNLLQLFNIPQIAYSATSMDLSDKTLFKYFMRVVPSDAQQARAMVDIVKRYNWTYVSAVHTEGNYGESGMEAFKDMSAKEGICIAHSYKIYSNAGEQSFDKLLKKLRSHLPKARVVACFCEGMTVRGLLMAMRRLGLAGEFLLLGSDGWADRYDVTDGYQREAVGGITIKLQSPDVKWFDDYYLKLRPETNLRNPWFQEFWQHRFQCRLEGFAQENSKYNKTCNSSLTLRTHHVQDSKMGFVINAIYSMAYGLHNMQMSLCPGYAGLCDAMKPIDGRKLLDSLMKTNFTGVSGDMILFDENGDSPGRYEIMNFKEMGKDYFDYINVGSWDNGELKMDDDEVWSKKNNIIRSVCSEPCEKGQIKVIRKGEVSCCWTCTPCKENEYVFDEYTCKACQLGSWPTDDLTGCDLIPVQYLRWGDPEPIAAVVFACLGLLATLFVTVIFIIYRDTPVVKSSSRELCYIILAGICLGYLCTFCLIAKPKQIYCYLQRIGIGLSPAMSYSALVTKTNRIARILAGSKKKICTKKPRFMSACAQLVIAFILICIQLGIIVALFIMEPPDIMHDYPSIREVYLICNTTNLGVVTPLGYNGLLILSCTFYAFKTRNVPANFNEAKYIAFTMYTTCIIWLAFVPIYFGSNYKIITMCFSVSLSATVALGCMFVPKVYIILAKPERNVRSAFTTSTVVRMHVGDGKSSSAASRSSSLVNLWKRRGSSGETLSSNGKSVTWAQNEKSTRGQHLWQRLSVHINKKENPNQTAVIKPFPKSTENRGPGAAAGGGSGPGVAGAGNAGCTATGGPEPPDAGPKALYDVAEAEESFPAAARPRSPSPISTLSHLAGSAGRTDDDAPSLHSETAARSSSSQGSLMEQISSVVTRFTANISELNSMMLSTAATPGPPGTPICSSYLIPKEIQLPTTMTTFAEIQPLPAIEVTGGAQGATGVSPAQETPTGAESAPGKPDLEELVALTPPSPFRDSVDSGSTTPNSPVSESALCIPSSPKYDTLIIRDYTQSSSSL
Method: Human embryonic kidney (HEK) cells transfected with rat or human mGluR5 were plated in clear bottom assay plates for assay in a Functional Drug Screening System (FDSS). The cells were loaded with a Ca^2+-sensitive fluorescent dye (e.g., Fluo-4), and the plates were washed and placed in the FDSS instrument. Test compound was applied to cells 3 seconds after baseline readings were taken. Cells were incubated with the test compounds for 140 seconds and then stimulated with an EC20 concentration of an mGluR5 agonist (e.g., glutamate, 3,5-dihydroxyphenylglycine, or quisqualate); 60-80 seconds later an EC80 concentration of agonist was added and readings taken for an additional 40 seconds. Data were collected at 1 Hz. […] Concentration response curves were generated using a four parameter logistical equation.
The above described assay was operated in two modes. In the first mode (utilizing a triple add protocol), a range of concentrations of the present compounds were added to cells, followed by two single fixed concentrations of agonist (EC20 followed by EC80). If a compound acted as a potentiator, an EC50 value for potentiation of the EC20 response and a maximum extent of potentiation by the compound at this concentration of agonist was determined by non-linear curve fitting. If a compound acted as an antagonist, an IC50 value for antagonism of the EC80 response and a maximum extent of antagonism by the compound at this concentration of agonist was determined by non-linear curve fitting. In the second mode (utilizing a double add protocol), several fixed concentrations of the present compounds were added to various wells on a plate, followed by a range of concentrations of agonist for each concentration of present compound; the EC50 values for the agonist at each concentration of compound were determined by nonlinear curve fitting. A decrease in the EC50 value of the agonist with increasing concentrations of the present compounds (a leftward shift of the agonist concentration-response curve) is an indication of the degree of mGluR5 positive allosteric modulation at a given concentration of the present compound. An increase in the EC50 value of the agonist with increasing concentrations of the present compounds (a rightward shift of the agonist concentration response curve) is an indication of the degree of mGluR5 antagonism at a given concentration of the present compound. The second mode also indicates whether the present compounds also affect the maximum response to mGluR5 to agonists.
The mGluR5 activity was determined using the calcium mobilization assays in human embryonic kidney cells as described herein below, wherein the human embryonic kidney cells were transfected with rat mGluR5. The mGluR5 activity data for some compounds are shown as the average of at least three experiments with the standard error in these cases. If no error is indicated for the mGluR5 activity, the values given represent the results from a single experiment or the average of two experiments. The compounds in Table 1 were synthesized with methods identical or analogous to those shown herein. The requisite starting materials were commercially available, described in the literature, or readily synthesized by one skilled in the art of organic synthesis.
GluMax is the amplitude of response in the presence of 30 μM test compound as a percentage of maximal response (100 μM glutamate). Partial antagonists display concentration-response curves (CRCs) that plateau above 10%.
The preparation of rat mGluR5 stable cell-lines is as previously described (e.g. see Romano et al. J Biol. Chem. 1996 Nov. 8; 271(45):28612-6).

[2] = target: mGluR4 (Homo sapiens, UniProt Q14833); details: cited from earlier work
Sequence of mGluR4 (Q14833 33-912): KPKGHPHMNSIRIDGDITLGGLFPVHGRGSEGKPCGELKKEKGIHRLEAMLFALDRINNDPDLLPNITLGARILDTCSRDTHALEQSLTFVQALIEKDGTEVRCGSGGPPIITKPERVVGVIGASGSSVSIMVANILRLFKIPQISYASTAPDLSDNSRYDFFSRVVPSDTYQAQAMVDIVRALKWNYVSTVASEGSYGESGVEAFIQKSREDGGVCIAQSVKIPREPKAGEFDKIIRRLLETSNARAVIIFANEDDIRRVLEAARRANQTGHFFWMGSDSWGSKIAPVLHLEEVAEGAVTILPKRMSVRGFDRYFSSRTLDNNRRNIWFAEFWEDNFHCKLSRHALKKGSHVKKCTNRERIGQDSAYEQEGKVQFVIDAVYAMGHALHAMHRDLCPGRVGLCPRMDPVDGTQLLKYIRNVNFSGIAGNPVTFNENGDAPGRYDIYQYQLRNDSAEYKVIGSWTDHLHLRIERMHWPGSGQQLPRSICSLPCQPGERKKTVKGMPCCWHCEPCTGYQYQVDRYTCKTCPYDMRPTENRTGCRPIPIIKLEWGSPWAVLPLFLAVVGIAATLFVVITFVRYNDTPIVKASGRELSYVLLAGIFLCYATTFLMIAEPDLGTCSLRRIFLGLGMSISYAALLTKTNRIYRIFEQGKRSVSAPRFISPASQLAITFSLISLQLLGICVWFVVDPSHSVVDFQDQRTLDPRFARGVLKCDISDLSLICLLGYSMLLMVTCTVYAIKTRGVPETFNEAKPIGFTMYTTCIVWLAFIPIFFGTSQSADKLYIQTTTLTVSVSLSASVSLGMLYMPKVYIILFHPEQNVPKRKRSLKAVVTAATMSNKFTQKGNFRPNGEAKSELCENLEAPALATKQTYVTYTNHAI

[3] = system: male Harlan CD-1 mice; details: literature; cited from earlier work
[4] = system: N-methyl-D-aspartate (NMDA) receptor; details: at higher concentrations; cited from earlier work
[5] = target: T2, cytochrome P450 1A2 (Homo sapiens, UniProt P05177); details: cited from earlier work
T2 sequence (P05177 1-516): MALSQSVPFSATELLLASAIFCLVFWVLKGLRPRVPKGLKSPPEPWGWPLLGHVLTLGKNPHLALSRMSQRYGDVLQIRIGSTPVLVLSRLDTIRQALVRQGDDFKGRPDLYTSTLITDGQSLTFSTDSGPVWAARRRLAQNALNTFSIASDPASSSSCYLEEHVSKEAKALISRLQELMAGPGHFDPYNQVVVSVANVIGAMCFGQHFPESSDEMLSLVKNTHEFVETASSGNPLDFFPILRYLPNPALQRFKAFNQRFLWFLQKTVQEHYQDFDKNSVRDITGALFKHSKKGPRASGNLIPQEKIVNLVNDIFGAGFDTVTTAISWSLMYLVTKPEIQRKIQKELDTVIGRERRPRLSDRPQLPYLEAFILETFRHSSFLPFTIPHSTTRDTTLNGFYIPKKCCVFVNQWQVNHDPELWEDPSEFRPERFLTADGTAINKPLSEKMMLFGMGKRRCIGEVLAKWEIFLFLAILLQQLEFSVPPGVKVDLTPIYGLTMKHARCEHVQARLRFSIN

[6] = intravenous administration, rhesus monkeys; cited from earlier work

Row | Compound | IC50 [1] | further results
1 | CCc1cccc(NC(=O)c2cc(Oc3cncc(F)c3)cn3nc(C)nc23)n1 | 623 nM | –
2 | Cc1cccc(C#Cc2ccccc2)n1 [MPEP, 2-methyl-6-(phenylethynyl) pyridine] | – | activity at mGluR4 [2]: positive allosteric modulator; effect in marble burying model [3]: effective; NMDA receptor activity [4]: directly inhibit
3 | Cc1nc(C#Cc2cccnc2)cs1 [MTEP, 3-[(2-methyl-1,3-thiazol-4-yl)ethynyl]pyridine] | – | cytochrome P450 1A2 inhibition [5]: potent inhibitor; clearance [6]: efficiently cleared
4 | O=C(Nc1ccc(F)cn1)c1cc(Oc2cncc(F)c2)cn2cnnc12 [drawing 160] | 28 ± 7 nM | –
5 | O=C(Nc1ccc(F)cn1)c1cc(Oc2cncc(F)c2)cn2ncnc12 [drawing 179] | 23 nM and 25 nM | –
6 | O=C(Nc1ccc(F)cn1)c1cc(Oc2cncnc2)cn2ncnc12 [drawing 195] | 100 nM and 75 nM | –
7 | CN1CC(=O)N=C1NC(=O)Nc1cccc(Cl)c1 [fenobam, 1-(3-chlorophenyl)-3-(1-methyl-4-oxo-4,5-dihydro-1H-imidazol-2-yl)urea] | – | effect in marble burying model [3]: effective

Now from value to molecule, other results behind:

Row | IC50 [1] | Compound | further results
8 | 1420 nM | CCc1cccc(NC(=O)c2cc(Oc3cncc(OC)c3)cn3cnnc23)n1 [drawing 282] | –
9 | > 10000 nM | CCc1cccc(NC(=O)c2cc(Oc3cncc(OC)c3)cn3cnnc23)n1 [drawing 287] | –
10 | 416 nM | COc1cncc(Oc2cc(C(=O)Nc3cccc(OC)n3)c3ncnn3c2)c1 [drawing 289] | –
11 | 334 nM | COc1cncc(Oc2cc(C(=O)Nc3cccc(OC)n3)c3ncnn3c2)c1 [drawing 305] | –
